Like-named read-outs stand apart in the source and are kept apart here.
Experiments:
[1] = test system: dopamine neurons in the midbrain VTA region; experiment: Patch clamp of spontaneous action potential (dopamine secretion normalization); assay type: in vivo, mouse; details: 250 mg/kg to 500 mg/kg
Description: A mouse model of autism spectrum disorder was created with the method described in Example 1.1. The 3-week-old male mice having autism spectrum disorder were divided into a group (n=6) orally injected with 250 mg/kg of AST-001 for 2 weeks and a group (n=6) orally injected with 500 mg/kg of AST-001 for 2 weeks, and were orally administered with AST-001. The 3-week-old male normal mouse group and the autism spectrum disorder mouse group (n=6) were orally administered with water once a day for 2 weeks and then used as a control group (n=6) in the behavioral experiment. The spontaneous action potential of dopamine neurons in the midbrain VTA region of the 5-week-old normal mice and the 5-week-old mice having autism spectrum disorder was checked with a patch clamp. It turned out that mice having autism spectrum disorder show a reduced firing rate of the spontaneous action potential as compared with the normal mice (see FIG. 3A). As a result, dopamine secretion has been reduced in a mouse having autism spectrum disorder, and it can be seen that the reduced dopamine secretion has caused behavioral abnormalities related to the dopamine pathway, such as attention, reward, and cognition.

[2] = Pharmacokinetic experiment in Beagle dog; assay type: in vivo; details: for bioavailability / half-life: Beagle, dog, plasma; for bioavailability: po, read-out: bioavailability by the oral administration; for half-life: read-out: drug loss half-life (t1/2) (converted); for AUCinf: fasting
Description: 4 g or 8 g of L-serine was orally or intravenously administered to Beagle dogs (1.8 to 2.6 years old, 8.6 to 11.6 kg, n=20). Blood collection was divided into blood collection before L-serine administration (basal blood collection) and blood collection after administration (main blood collection). During the experiment, the Beagle dogs were maintained in a fasting state, and L-serine concentration in the plasma was analyzed by LC-MS/MS.

[3] = Pharmacokinetic experiment in healthy adult males; assay type: in vivo, human; details: for AUC(0-t): read-out: average AUClast of L-serine without baseline correction
Description: (§1) 24 hours before the administration with AST-001 (main component: L-serine), blood was collected to measure the concentration of L-serine. 60 g of an AST-001 powder is a white homogeneous powder without having foreign substances, divided and repackaged into an HDPE bottle or a bottle made of the same material, and the composition of this drug is such that 1,000 mg of the main component L-serine is comprised per 1,000 mg dose. [table]

[4] = test system: healthy adults; experiment: Safety evaluation in healthy adults; assay type: in vivo, human; details: single oral up to 30 g per day; 15 g twice a day for 7 days
Description: as §1, with “[…] As a result, it was confirmed that AST-001 can be safely administered within a dose range of 10 to 30 g per day for indications that require repeated administration. The results of the pharmacokinetic analysis in the AST-001 repeated administration test in healthy adult males are as shown in Table 2 below.” for “[table]”

[5] = test system: children having autism spectrum disorder; experiment: Phase 2 clinical trial, effectiveness; assay type: in vivo, human; details: high-dose short-term administration group, 24 weeks vs 12 weeks
Description: 151 children having autism spectrum disorder were subjected to a multicentered, randomly assigned, double-blinded, placebo-controlled, and therapeutically exploratory phase 2 clinical trial for exploring the effectiveness and evaluating the safety of an AST-001 syrup. An AST-001 syrup used in a clinical trial is a colorless or pale yellow clear syrup which is aromatic and has sweetness, and it comprises, as a main ingredient, 10 g of L-serine in about 100 mL of this drug and is packaged in aluminum foil at a dosage of 2 g/20 mL. The composition of the AST-001 syrup is such that the AST-001 syrup comprises L-serine as a main ingredient, sodium carboxymethyl cellulose as a thickener, methyl paraoxybenzoate and propyl paraoxybenzoate as preservatives, a citric acid hydrate and a potassium citrate hydrate as pH adjusting agents, white sugar and a D-sorbitol solution as sweetening agents, an apple mint flavor SJ-G (22005221) as a fragrance imparting agent, and purified water. […] After the extension study period of 12 weeks ended, the effectiveness and adverse events in patients were followed up and monitored for 12 weeks (that is, follow-up period). […] The K-VABS-II Adaptive Behavior Composite (K-VABS-II ABC) score, which is a primary evaluation variable, is a calculated score (standard score) for the main domain, where the higher score means the higher level of adaptive behavior.

For `N[C@@H](CO)C(=O)O` [AST-001, L-serine], the dopamine secretion [1] was “increases”, the bioavailability ([2]; 4 g per individual) was 106% and the bioavailability ([2]; 8 g per individual) was 84.2%. It also gave a half-life ([2]; oral 4 g) of 3.8 ± 1.4 h, a half-life ([2]; oral 8 g) of 4.7 ± 1.8 h and an AUCinf ([2]; oral 4 g) of 628 ± 108 µg·h/mL. For the same compound, the AUCinf ([2]; oral 8 g) was 1330 µg·h/mL, the CLss/F ([3]; 15 g twice a day for 7 days, N = 7, mean ± SD) was 21.97 ± 5.99 L/h and the AUC ([3]; male, human, blood, oral, 15 g, 15 g twice a day for 1 week, steady state, read-out: average AUCtau of L-serine without baseline correction) was roughly 883 µg·h/mL. For the same compound, the AUC ([3]; male, human, blood, oral, 15 g, 15 g twice a day for 7 days, N = 7, mean ± SD, read-out: AUCtau, ss) was 729 ± 202 µg·h/mL, the Cmax ([3]; male, human, blood, oral, 15 g twice a day for 7 days, N = 7, mean ± SD) was 212 ± 56.2 µg/mL and the Vd/F ([3]; male, human, blood, oral, 15 g twice a day for 7 days, N = 7, mean ± SD, read-out: Vz/F) was 348 ± 220 L. It also gave a half-life ([3]; male, human, blood, oral, 15 g twice a day for 7 days, N = 7, mean ± SD, read-out: t1/2 (converted)) of 11 ± 5.17 h, a Tmax ([3]; male, human, blood, oral, 15 g twice a day for 7 days, N = 7, median value) of 1 h and a half-life ([3]; male, human, blood, oral, read-out: average half-life of extrinsically administered L-serine) of 6.5 to 14 h. It also gave an AUC(0-t) ([3]; male, human, blood, oral, single administration 10 g) of 613 µg·h/mL, an AUC(0-t) ([3]; male, human, blood, oral, single administration 20 g) of 1130 µg·h/mL and an AUC(0-t) ([3]; male, human, blood, oral, single administration 30 g) of 1530 µg·h/mL. The half-life ([3]; male, human, blood, po, 15 g orally twice a day for 7 days, steady state, read-out: average half-life (converted)) was roughly 11 h, the “Cmax, AUClast, and AUCinf with increasing dosage” value ([3]; single oral 10 g, 15 g, 20 g or 30 g) was “linearly increased” and the average accumulation index ([3]; steady state vs single administration with 15 g) was “about 1.7 times”. For the same compound, the “safety and drug tolerance” value [4] was “excellent safety and drug tolerance” and the “amount of score change in the K-VABS-II ABC and the main domain, 2DC and CGI-S” value [5] was “significantly improves”.

Reference: patent US12478602B2, “Method for treating a disorder” (priority 2023, dated 2025)
